Measured values from article PMC3119931 (2011).
Values belong to the compound of their own block, whether it stands above or below them.

Legend:
[1] = system: GRA (B. subtilis xpt-pbuX guanine riboswitch C74U aptamer domain) (RNA, riboswitch) GGACAUAUAAUCGCGUGGAUAUGGCACGCAAGUUUCUACCGGGCACCGUAAAUGUCCGAUUAUGUCC; experiment: 2-aminopurine displacement fluorescence competition; conditions: 100 mM KCl, 10 mM MgCl2, 50 mM Tris-HCl pH 8.3
[2] = system: GRA (B. subtilis xpt-pbuX guanine riboswitch C74U aptamer domain) (RNA, riboswitch) GGACAUAUAAUCGCGUGGAUAUGGCACGCAAGUUUCUACCGGGCACCGUAAAUGUCCGAUUAUGUCC; experiment: X-ray crystallography; conditions: cocrystal structure, 1.6 Å
[3] = system: GRA (B. subtilis xpt-pbuX guanine riboswitch C74U aptamer domain) (RNA, riboswitch) GGACAUAUAAUCGCGUGGAUAUGGCACGCAAGUUUCUACCGGGCACCGUAAAUGUCCGAUUAUGUCC; experiment: 2-aminopurine fluorescence titration; conditions: 100 mM KCl, 10 mM MgCl2; 50 mM Tris-HCl pH 8.3; RNA titrated into 200 nM 2-aminopurine
[4] = 2-aminopurine displaced (KL 140 nM), 243 nM RNA

Structure (SMILES): Nc1ncnc(N)n1
- KD [1, 4]: 80 ± 20 µM

Structure (SMILES): CNc1ncnc2[nH]cnc12
- binding [2]: yes

Structure (SMILES): Nc1nc2[nH]nc(N)n2n1
- KD [1, 4]: 370 ± 40 µM

Structure (SMILES): Nc1cc(N)nc(N)n1
- binding constant [1, 4]: 0.014 ± 0.001 mM

Other lines, results leading:

- binding ([1]; 2-aminopurine displaced, highest concentration tested 120 μM): no
Structure (SMILES): Nc1nc(N)nc(Cl)n1

- KL [3]: 140 nM
Structure (SMILES): Nc1ncc2[nH]cnc2n1

- KD [1, 4]: 110 ± 30 µM
Structure (SMILES): Cc1nc(N)nc(N)n1
